Key:
NF-κB = NF-κB inhibition in NIH-3T3-KBF-Luc cells stimulated with TNFα; type: cell-based; settings: TNFα 30 ng/ml, 6 h
Protocol: To further study the target selectivity of the compounds described in the present invention the effect of the natural triterpenoids (OA; BA, UA, and MA), compounds II to XV of Formula (I) disclosed in present invention, and of comparative compound CDDO-Me on NF-κB inhibition, STAT-3 inhibition, Nrf2 activation and TGR5 activation was analyzed. For this study cell lines NIH-3T3-KBF-Luc, HeLa-STAT3-Luc, HaCaT-ARE-Luc and CHO-TGR5-CRE-luc were used respectively. The NIH3T3-KBF-Luc cell line stably transfected with the plasmid KBF-Luc plasmid, which contains three copies of NF-κB binding site (from major histocompatibility complex promoter), fused to a minimal simian virus 40 promoter driving the luciferase gene. Cells (1×10^4/well) were seeded in 96-well plates, treated with increasing concentrations of the compounds II to XV for 15 min and then stimulated with 30 ng/ml TNFα. After 6 h the luciferase activity in the cell lysates was measured as indicated above.

TGR5 = TGR5 activation in CHO-TGR5-CRE-Luc cells; type: cell-based; settings: 6 h
Protocol: The CHO-TGR5-CRE-Luc cells stably transfected with the pTGR5 and CRE-Luc. […] As a positive control the cells were treated with 10 μM of LCA (lithocholic acid). Luciferase activity in the cell lysates was measured as indicated above and the EC50 calculated (Table III).

HIF-2α = HIF-2α stabilization in hIPCs (Western blot); type: cell-based, human; settings: increasing concentrations, 3 h
Protocol: Stimulation of human Islet-Derived Precursor Cells (hIPCs) with increasing concentrations of compound VII or with DFX (150 μM) during 3 h, and the expression of HIF-2α, PHD3 and β-actin determined by Western blots.
Since PDH2 and PDH3 also regulate the expression of HIF-2α, the effect of compound VII on HIF-2α stabilization in Human Islet-Derived Precursor Cells (hIPCs) obtained from Innoprot SL (Spain) (reference p10472) was investigated. hIPCs were stimulated with the increasing concentrations of compound VII or with DFX (150 μM) during 3 h. After that, proteins isolation and western blots were performed as in FIG. 3. The antibodies against HIF-2α (ab8365) and PHD3 (ab30782) were from Abcam (Cambrigde, UK), and the antibody anti-β-actin (AC-74) was purchased from Sigma-Aldrich (Saint Louis, Mo., USA). (FIG. 5).

3NP-lesioned mice = assay: 3-NP induced Huntington's disease model in mice; type: in vivo, mouse
Protocol: Striatal neurodegeneration was induced in 16-week-old C57BL/6 male mice (Harlan Ibérica, Barcelona, Spain) by six intraperitoneal (i.p.) injections of 3-nitropropionic acid (3NP) (30 mg/kg; one injection each every 12 h prepared in PBS). 3NP-treated animals and the non-lesioned control group (injected with PBS) were used for pharmacological studies with Betulinic acid (30 mg/Kg) and compound VII (30 mg/Kg). Treatments consisted of 5 i.p. injections every 24 h with […] the test compounds or vehicle (10% DMSO plus 6.2% Tween 20 in saline buffer), with the first injection 24 h prior the first 3NP injection and the rest of doses 30 min before the injections of 3NP. Mice were subjected to behavioral tests for determining their neurological status. General locomotor activity, the hindlimb clasping and dystonia, and the truncal dystonia were evaluated. All behavioral tests were conducted prior to drug injections to avoid acute effects of the compounds under investigation. […] were euthanized 12 h after the last injection of 3NP. Once euthanized, animals were dissected and their brains were rapidly removed. The right hemisphere was used to dissect the striatum, which was quickly frozen in RNAlater (Sigma-Aldrich, Germany) to analyzed inflammatory markers were by Real Time PCR. The left hemisphere was fixed in fresh 4% paraformaldehyde (in 0.1M phosphate buffered-saline) for 48 hours at 4° C. and embedded in paraffin wax for histological analysis.
For this test, intoxicated mice with 3-Nitropropionic acid (3-NP) were used for determining microglia activation and astrogliosis including a Control with non-intoxicated mice (3NP, 3NP+BA and 3NP+Compound VII). Iba-1 and glial fibrillary acidic protein (GFAP) expression were determined by immunostaining of brain sections through the different group of mice. Quantification of the different markers was performed with Image J software.
Total RNA was isolated from striata (3NP model) using RNeasy Lipid Tissue Mini Kit (Qiagen, GmbH). The total amount of RNA extracted was quantitated by spectrometry at 260 nm and its purity from the ratio between the absorbance values at 260 and 280 nm. Genomic DNA was removed to eliminate DNA contamination. Single-stranded complementary DNA was synthesized from up to 1 μg of total RNA (pool from at least 3 animals per group) using iScript™ cDNA Synthesis Kit (Bio-Rad, Hercules, Calif., USA). The reaction mixture was kept frozen at −20° C. until enzymatic amplification. The iQ™ SYBR Green Supermix (Bio-Rad) was used to quantify mRNA levels for COX-2, IL-6, IL-1β, and iNOS. […] Expression levels were calculated using the 2^−ΔΔCt method.

C=C(C)[C@@H]1CC[C@]2(C(=O)NO)CC[C@]3(C)[C@H](CC[C@@H]4[C@@]5(C)CC[C@H](O)C(C)(C)[C@@H]5CC[C@]43C)[C@@H]12 [Compound VII, (3β) 3-Hydroxy-N-hydroxy-lup-20(29)-en-28-amide]
IC50 (NF-κB): > 50 µM | EC50 (TGR5): > 50 µM | HIF-2α expression (HIF-2α): stabilized HIF-2α expression | expression of PHD3 (HIF-2α): without affecting the expression of PHD3 | mRNA expression for COX-2, IL-1β, IL-6 and iNOS in striatum (3NP-lesioned mice; 30 mg/kg, compared with 3NP+Vehicle): down regulated | clinical symptoms (behavioral score) induced by 3-NP intoxication (3NP-lesioned mice; i.p., 30 mg/kg): clearly alleviated the clinical symptoms | reduction in Nissl-stained cells (neuronal death) in striatum caused by 3NP (3NP-lesioned mice; i.p., 30 mg/kg): clearly prevented | 3NP-induced microgliosis (Iba1) and astrogliosis (GFAP) (3NP-lesioned mice; i.p., immunohistochemistry): reduced 3NP-induced microgliosis and astrogliosis

Reference: US10766855B2, “Hydroxamate triterpenoid derivatives” (VIVACELL BIOTECHNOLOGY ESPANA S.L., priority 2016, dated 2020)
